pIC50: −log10 of the molar value. Non-standard residues stand in square brackets, D forms with d. Residues, ends and D or L forms follow the SMILES beside them. *: point of attachment. Hyp = O=C(O)[C@@H]1C[C@@H](O)CN1; Chg = N[C@H](C(=O)O)C1CCCCC1; Nva = CCC[C@H](N)C(=O)O; X1 = c1ccc2cc(C*)ccc2c1
Assay: Compound was evaluated for its inhibitory activity against porcine pancreatic elastase (PPE)

pIC50: < 3.52
Structure (SMILES): CCC[C@H](NC(=O)[C@@H]1C[C@@H](OCc2ccc3ccccc3c2)CN1C(=O)[C@@H](NC(=O)[C@@H](NC(=O)[C@@H](CCC(=O)O)NC(=O)[C@H](CC(=O)O)NC(C)=O)C1CCCCC1)C(C)C)C(=O)O [(S)-2-{[(2S,4R)-1-((S)-2-{(S)-2-[(R)-2-((S)-2-Acetylamino-3-carboxy-propionylamino)-4-carboxy-butyrylamino]-2-cyclohexyl-acetylamino}-3-methyl-butyryl)-4-(naphthalen-2-ylmethoxy)-pyrrolidine-2-carbonyl]-amino}-pentanoic acid] (Ac-D[dE][Chg]V[Hyp](X1)[Nva]-OH)

Reference: BindingDB's records for doi:10.1016/s0960-894x(00)00465-0 (Boehringer Ingelheim Pharmaceuticals, 2001)
